The structures appear in SMILES notation.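 Test compounds were applied to cells in 96-well plates for 48 hours at 5 doses. The concentration for full growth arrest is given as TGI.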

Among the test systems are NCI/ADR-RES ovarian; SF-295 CNS; T-47D breast; HS 578T breast; MDA-N; BT-549 breast; MCF7 breast; DU-145 prostate; UACC-257 melanoma; MDA-MB-231 breast; HOP-92 NSCLC; HL-60(TB) leukemia; K-562 leukemia; SK-OV-3 ovarian; M19-MEL melanoma; LXFL 529 NSCLC; DLD-1 colon; HOP-62 NSCLC; MALME-3M melanoma; HOP-18 NSCLC.
Common to all, as to assay: NCI-60 cell line screen, 48 h

Consider `NC(CCOCCP(=O)(O)O)C(=O)O` (stereo not given), for which the TGI in the assay on NCI/ADR-RES ovarian, with SF-295 CNS, with T-47D breast, in the assay on HS 578T breast, in the assay on MDA-N and with BT-549 breast was greater than 100 µM throughout. Moreover, the TGI in the assay on MCF7 breast, with DU-145 prostate, in the assay on UACC-257 melanoma, with MDA-MB-231 breast, in the assay on HOP-92 NSCLC and in the assay with HL-60(TB) leukemia was greater than 100 µM in each case. Besides, the TGI in the assay on K-562 leukemia and with SK-OV-3 ovarian was greater than 100 µM each time.
Consider `COc1c2c(c3ccccc3c1O)C1C=CC2C1` (stereo not given), for which the TGI stood at 5.46 µM in the assay with M19-MEL melanoma; 14.7 µM in the assay on LXFL 529 NSCLC; 31.6 µM with DLD-1 colon; 29.7 µM in the assay on HOP-62 NSCLC; 18.8 µM in the assay with MALME-3M melanoma; 28.5 µM with HOP-18 NSCLC.
